According to US20260266848A1, “COMPOSITIONS AND METHODS FOR DIAGNOSING AND TREATING DYSTONIA” (Duke University, priority 2023, published 2026):

How the values were obtained:
DYT1 patient plasma = assay: Whole plasma metabolomics (Biocrates MxP Quant 500 Kit), DYT1 vs Healthy Controls; details: DYT1-Dystonia vs Healthy Control
From the text: Duke Proteomics and Metabolomics Core Facility (DPMCF) also analyzed metabolites from 41 plasma samples using the Biocrates MxP Quant 500 Kit. Plasma from 14 subjects with DYT1 and 27 Healthy Controls was utilized.

[1] = tested on: DYT1 patient plasma derived EVs; assay: Plasma-derived EV proteomics (ExoQuick ULTRA, DIA LC/MS/MS), DYT1 vs Healthy Controls; set-up: species or system human; details: Hs. Plasma EVs (DYT1/WT); significance of genotype difference
Method: Data was obtained for extracellular vesicles using previously acquired samples. The ExoQuick® ULTRA EV Isolation System was used to fractionate and enrich EVs from plasma. Isolated plasma EV samples were then submitted to proteomic analysis by the Duke Proteomics and Metabolomics Core Facility (DPMCF). At the DPMCF, quantitative (LC/MS/MS) was performed on 500 ng of each sample, using an EvoSep One UPLC system coupled to a Thermo Orbitrap Astral high-resolution accurate mass tandem mass spectrometer (Thermo). Briefly, the sample was eluted directly from an Evotip which was subjected to a low organic wash and then subjected to an analytical separation using a 1.7 μm EvoSep 150 um ID×15 cm endurance (EveoSep) column running an SPD30 gradient from approximately 5 to 30% acetonitrile with 0.1% formic acid with a column temperature of 50 C. Data collection on the Orbitrap Astral mass spectrometer was performed in a data-independent acquisition (DIA) mode of acquisition with a r=240,000 (@m/z 200) full MS scan from m/z 380-980 with a target AGC value of 4e5 ions. Fixed DIA, windows of 4 m/z from m/z 380 to 980 DIA MS/MS scans were acquired in the Astral with a target AGC value of 5e4 and a max fill time of 6 ms. HCD collision energy setting of 27% was used for all MS2 scans.

WT MEF EVs = assay: Quantitative LC-MS/MS proteomics of EVs from ISRIB-treated WT MEF cultures; assay type: cell-based, mouse; set-up: key to ISRIB and DYT Parallel Direction / ISRIB and DYT Parallel Direction, Ctdsp1 / ISRIB and DYT Parallel Direction, Pcdh19 / ISRIB and DYT Parallel Direction, Tspan7 / ISRIB and DYT Parallel Direction, Myo1e / ISRIB and DYT Parallel Direction, Plpp3 / ISRIB and DYT Parallel Direction, Sh3bp4 / ISRIB and DYT Parallel Direction, Dnajc7 / ISRIB and DYT Parallel Direction, Drg1 / ISRIB and DYT Parallel Direction, Maea: YES = protein abundance effect similar to DYT/WT; details: EV protein abundance; for WT + ISRIB/WT Cohen's d: ISRIB-treated WT vs WT; for ISRIB and DYT Parallel Direction: WT + ISRIB vs WT, direction compared with DYT/WT
DYT-TOR1A MEF EVs = assay: Quantitative LC-MS/MS proteomics of EVs from drug-treated DYT-TOR1A MEF cultures (ritonavir, salubrinal); assay type: cell-based, mouse; set-up: key to RTV Corrective Direction / RTV Corrective Direction, Grwd1 / RTV Corrective Direction, Srrm2 / RTV Corrective Direction, Rbm17 / RTV Corrective Direction, Dcaf8 / RTV Corrective Direction, Edil3 / RTV Corrective Direction, Timp3 / RTV Corrective Direction, Heatr3 / RTV Corrective Direction, Brd4 / RTV Corrective Direction, P3h4 / RTV Corrective Direction, Pacsin3 / RTV Corrective Direction, Naa50 / RTV Corrective Direction, Lpar6 / RTV Corrective Direction, Ndrg1 / RTV Corrective Direction, Kntc1 / RTV Corrective Direction, Cdk11b / RTV Corrective Direction, Sumo1 / RTV Corrective Direction, Lsm4 / RTV Corrective Direction, Hmga2 / RTV Corrective Direction, Cstf1 / RTV Corrective Direction, Tes / RTV Corrective Direction, Sbno1 / RTV Corrective Direction, Unc119b / RTV Corrective Direction, Cfdp1 / RTV Corrective Direction, Sec61b: YES = protein abundance effect opposite to DYT/WT; details: EV protein abundance; for RTV Corrective Direction: DYT + RTV (ritonavir) vs DYT, direction compared with DYT/WT; for DYT + RTV/DYT Cohen's d: ritonavir (RTV)-treated DYT vs DYT

Row | Compound | -LogP (DYT1 patient plasma) | -LogP [1] | WT + ISRIB/WT Cohen's d (WT MEF EVs) | ISRIB and DYT Parallel Direction (WT MEF EVs) | RTV Corrective Direction (DYT-TOR1A MEF EVs) | DYT + RTV/DYT Cohen's d (DYT-TOR1A MEF EVs)
1 | NCCCCC(=O)O [5-AVA_Aminoacids Related] | 2.862 |  |  |  |  | 
2 | N[C@@H](CC(=O)O)C(=O)O [Asp_Aminoacids] | 1.99 |  |  |  |  | 
3 | N[C@@H](CSSC[C@H](N)C(=O)O)C(=O)O [Cystine_Aminoacids Related] | 2.546 |  |  |  |  | 
4 | CCCCCCCCCCCCCCCCCCCCCCCCCC(=O)OC[C@@H](O)COP(=O)([O-])OCC[N+](C)(C)C [lysoPC a C26:0_Glycerophospholipids] | 2.027 |  |  |  |  | 
5 | CCCCCCCCCCCCCCCCCCCCCCCCCCCC(=O)OC[C@@H](O)COP(=O)([O-])OCC[N+](C)(C)C [lysoPC a C28:0_Glycerophospholipids] | 1.585 |  |  |  |  | 
6 | Cc1ccc(OS(=O)(=O)O)cc1 [p-Cresol-SO4_Cresols] | 1.433 |  |  |  |  | 
7 | CRYAB |  | 1.577 |  |  |  | 
8 | DLST |  | 1.928 |  |  |  | 
9 | FLNA |  | 1.743 |  |  |  | 
10 | Gmppb |  |  | −2.41 | YES | YES | 5.38
11 | Hdgf |  |  | 1.97 | YES | YES | −0.15
12 | Hmcn1 |  |  | −2.25 |  | YES | −3.58
13 | Huwe1 |  |  | −3.93 | YES | YES | 5.04
14 | Idh2 |  |  | −2.01 | YES | YES | 23.61
15 | Ilf2 |  |  | −1.37 | YES | YES | 2.47
16 | Itpa |  |  | −1.25 | YES | YES | 12.80
17 | Ltbp1 |  |  | 2.17 | YES | YES | −3.08
18 | Ltbp2 |  |  | 0.70 | YES | YES | −5.72
19 | MAPK3 |  | 1.682 |  |  |  | 
20 | MYH9 |  | 1.313 |  |  |  | 
21 | Myo18a |  |  | 2.27 |  | YES | 4.91
22 | Nes |  |  | 2.29 | YES |  | 0.37
23 | Notch3 |  |  | 0.52 | YES | YES | −2.22
24 | Nrbp1 |  |  | 0.18 |  | YES | 6.35

Row | Compound | -LogP (DYT1 patient plasma) | -LogP [1] | WT + ISRIB/WT Cohen's d (WT MEF EVs) | ISRIB and DYT Parallel Direction (WT MEF EVs) | RTV Corrective Direction (DYT-TOR1A MEF EVs) | DYT + RTV/DYT Cohen's d (DYT-TOR1A MEF EVs)
25 | Otub1 |  |  | −2.26 | YES | YES | 5.84
26 | Oxsr1 |  |  | −0.72 | YES | YES | 5.88
27 | PCMT1 |  | 1.506 |  |  |  | 
28 | PI4KA |  | 2.66 |  |  |  | 
29 | PSMC5 |  | 1.615 |  |  |  | 
30 | PSME4 |  | 1.398 |  |  |  | 
31 | Pgp |  |  | −0.86 | YES | YES | 2.28
32 | Prpf8 |  |  | −0.01 | YES | YES | 7.95
33 | Ptprs |  |  | 0.13 | YES | YES | −5.40
34 | RHOA |  | 1.674 |  |  |  | 
35 | Rab1b |  |  | −2.54 | YES | YES | 1.15
36 | Sar1a |  |  | −1.23 | YES | YES | 4.40
37 | Spp1 |  |  | 2.67 | YES | YES | −6.93
38 | Sptan1 |  |  | −0.40 | YES | YES | 3.22
39 | Sptbn1 |  |  | −0.82 | YES | YES | 3.27
40 | Svep1 |  |  | −0.50 |  | YES | −0.40
41 | TARDBP |  | 1.352 |  |  |  | 
42 | TGFB2 |  | 2.018 |  |  |  | 
43 | TLN1 |  | 1.51 |  |  |  | 
44 | TLN2 |  | 1.45 |  |  |  | 
45 | Tardbp |  |  | 0.28 | YES | YES | 0.80
46 | Usp7 |  |  | −1.90 | YES | YES | 6.89
47 | lgf1r |  |  | 0.75 |  | YES | 0.63
